Data as given in paper PMC10065799, “High-throughput profiling of sequence recognition by tyrosine kinases and SH2 domains using bacterial peptide display” (eLife, 2023).

Experiments:
[1] = tested on: Fer kinase domain; experiment: pTyr-Var library bacterial peptide display kinase screen (enrichment scores); assay type: biochemical, mouse
[2] = tested on: 4G10 Platinum pan-phosphotyrosine antibody; experiment: Phosphorylated pTyr-Var library selection with biotinylated pan-phosphotyrosine antibody; assay type: binding, mouse; conditions: enrichment score, sheet SH2-vs-peptide
Description: After the desired time of library phosphorylation, kinase activity was quenched with 25 mM EDTA and the cells were washed with PBS containing 0.2% BSA. Kinase-treated cells were then labeled with a 1:1000 dilution of biotinylated 4G10 Platinum anti-phosphotyrosine antibody (Millipore) for an hour on ice and washed with PBS containing 0.1% BSA and 2 mM EDTA (isolation buffer). The cells were finally resuspended in PBS containing 0.1% BSA. The phosphorylated, antibody-labeled cells were then mixed with magnetic beads from Dynabeads FlowComp Flexi kit (Invitrogen), at a ratio of 37.5 μL of washed beads per 50 μL of cell suspension, diluted into 450 μL of isolation buffer. The suspension was rotated at 4 °C for 30 minutes, then 375 μL of isolation buffer was added and the beads were separated from the bulk solution on a magnetic rack. The beads were washed once with 1 mL of isolation buffer, and then the supertantant were removed by aspiration. […] The bead/lysate mixture was centrifuged to pellet the beads and the mixture was stored at -20 °C.

[3] = tested on: AncSZ kinase domain; experiment: pTyr-Var library bacterial peptide display kinase screen (enrichment scores); assay type: biochemical
[4] = tested on: FGFR3 kinase domain; experiment: as above; assay type: biochemical, human
[5] = target: c-Src SH2 domain (Homo sapiens, UniProt P12931); experiment: pTyr-Var library SH2 domain screen with SH2-dynabeads (enrichment scores); conditions: sheet c-Src
[6] = tested on: EPHB2 kinase domain; experiment: pTyr-Var library bacterial peptide display kinase screen (enrichment scores); assay type: biochemical, human
[7] = target: T1, c-Abl kinase domain (Mus musculus, UniProt P00520); experiment: as above; assay type: biochemical
T1 sequence (P00520 242-493 limits assumed): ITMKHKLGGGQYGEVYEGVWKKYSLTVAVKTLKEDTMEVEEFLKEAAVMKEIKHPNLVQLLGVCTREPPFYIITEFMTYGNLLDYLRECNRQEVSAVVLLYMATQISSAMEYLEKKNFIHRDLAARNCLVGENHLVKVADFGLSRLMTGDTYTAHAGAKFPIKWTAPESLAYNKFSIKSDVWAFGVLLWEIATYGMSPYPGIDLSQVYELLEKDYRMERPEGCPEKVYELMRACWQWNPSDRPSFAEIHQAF

[8] = tested on: EPHB1 kinase domain; experiment: as above; assay type: biochemical, human
[9] = tested on: Fyn kinase domain; experiment: as above; assay type: biochemical, human
[10] = tested on: SHP2 C-SH2 domain; experiment: pTyr-Var library SH2 domain screen with SH2-dynabeads (enrichment scores)
[11] = target: c-Src kinase domain (Homo sapiens, UniProt P12931); experiment: pTyr-Var library bacterial peptide display kinase screen (enrichment scores); assay type: biochemical
[12] = tested on: MERTK kinase domain; experiment: as above; assay type: biochemical, human
[13] = tested on: Jak2; experiment: as above; assay type: biochemical, human
[14] = tested on: Hck kinase domain; experiment: as above; assay type: biochemical, human; conditions: enrichment score
[15] = tested on: Grb2 SH2 domain; experiment: pTyr-Var library SH2 domain screen with SH2-dynabeads (enrichment scores)
[16] = tested on: FGFR1 kinase domain; experiment: pTyr-Var library bacterial peptide display kinase screen (enrichment scores); assay type: biochemical, human
[17] = tested on: Fes; experiment: as above; assay type: biochemical; conditions: mean of log2 of enrichment over R1-R6
[18] = mean of log2 of enrichment over R1-R4
[19] = pTyr-Var library, enrichment score, replicate 1
[20] = pTyr-Var library, enrichment score, replicate 3
[21] = pTyr-Var library, enrichment score, replicate 4
[22] = mean of log2 enrichment of reference peptide, n = 5
[23] = pTyr-Var library, reference peptide enrichment, mean of n = 5
[24] = mean of log2 enrichment of reference peptide, n = 4
[25] = pTyr-Var library, reference peptide enrichment, mean of n = 4

Sequence: LRVGFYESDVM [A2M_Y708]
- Fer mean of log2(enrichment) [1, 18]: 0.6409
- Fer enrich. R1 [1, 19]: 1.74
- Fer enrich. R3 [1, 20]: 2.063
- Fer enrich. R4 [1, 21]: 1.716
- 4G10 (mean) [2]: 1.415
- AncSZ mean of log2(enrichment) ([3]; mean of log2 of enrichment over R1-R5): 1.515
- AncSZ enrich. R3 [3, 20]: 3.27
- AncSZ enrich. R4 [3, 21]: 3.639
- AncSZ enrich. R5 ([3]; pTyr-Var library, enrichment score, replicate 5): 3.918
- mean of log2(reference) [4, 22]: 1.27
- ref. mean [4, 23]: 2.887
- mean of log2(reference) ([5]; mean of log2 enrichment of reference peptide, R1-R3): 2.001
- ref. mean ([5]; reference peptide, mean of R1-R3): 4.137
- mean of log2(reference) [6, 24]: -0.3867
- ref. mean [6, 25]: 0.9336
- c-Abl mean of log2(enrichment) [7, 18]: 0.8901
- c-Abl enrich. R1 [7, 19]: 1.339
- c-Abl enrich. R3 [7, 20]: 1.7654
- c-Abl enrich. R4 [7, 21]: 2.061
- mean of log2(reference) [8, 24]: 0.89
- EPHB1 enrichment (mean) ([8]; pTyr-Var library, enrichment score, mean of replicates): 1.865
- ref. mean [8, 25]: 1.865
- Fyn mean of log2(enrichment) [9, 18]: -0.1485
- Fyn enrich. R1 [9, 19]: 1.939
- Fyn enrich. R3 [9, 20]: 1.639
- Fyn enrich. R4 [9, 21]: 0.1487
- mean of log2(reference) ([10]; SHP2-C SH2, mean of log2 enrichment of reference, R1-R3): 0.01184
- ref. mean ([10]; reference peptide enrichment score, SHP2-C SH2, mean of R1-R3): 1.018
- c-Src mean of log2(enrichment) [11, 18]: 0.391
- c-Src enrich. R1 [11, 19]: 1.08
- c-Src enrich. R3 [11, 20]: 1.298
- c-Src enrich. R4 [11, 21]: 1.223
- mean of log2(reference) [12, 24]: 1.359
- ref. mean [12, 25]: 2.61
- Jak2 mean of log2(enrichment) ([13]; mean of log2 of enrichment over R1-R3): 0.9825
- Jak2 enrichment (mean) ([13]; pTyr-Var library, enrichment score, mean of replicates R1-R3): 2.035
- Jak2 enrich. R1 [13, 19]: 2.166
- Jak2 enrich. R3 [13, 20]: 1.407
- Hck enrich. R1 ([14]; replicate 1): 1.102
- Hck enrich. R3 ([14]; replicate 3): 1.0148
- Hck enrich. R4 ([14]; replicate 4): 0.9933
- mean of log2(reference) ([15]; Grb2 SH2, mean of log2 enrichment of reference, R1-R3): -0.1031
- ref. mean ([15]; reference peptide enrichment score, Grb2 SH2, mean of R1-R3): 0.9341
- mean of log2(reference) [16, 22]: 0.2144
- ref. mean [16, 23]: 1.392
- Fes mean of log2(enrichment) [17]: 1.487
